According to patent US9593305B2, “Differentiation of pluripotent stem cells” (Janssen Biotech, Inc., priority 2008, dated 2017):

Test system: H1 human embryonic stem cells
Experiment: Screen of CDK, GSK3 and TRK inhibitors with or without GDF-8, SOX17 and cell number (Example 20, Table 17)
Assay type: cell-based
Settings: for Cell Number, Average Total Cell Number / Sox17 Expression, Average Total Intensity / Cell Number, % of positive control / Sox17 Expression, % of positive control: Plate 1; for Cell Number, % of positive control / Sox17 Expression, % of positive control: positive control = Activin A/Wnt3a
Protocol: Briefly, clusters of H1 human embryonic stem cells were grown on reduced growth factor Matrigel™ (Invitrogen; Cat #356231) coated tissue culture plastic. Cells were passaged using collagenase (Invitrogen; Cat #17104-019) treatment and gentle scraping, washed to remove residual enzyme, and plated with even dispersal at a ratio of 1:1 (surface area) on reduced growth factor […]™ (BD Biosciences; Cat #356231)-coated 96-well black plates (Packard ViewPlates; PerkinElmer; Cat #6005182) using volumes of 100 μl/well. Cells were allowed to attach and then recover log phase growth over a 1 to 3 day time period, feeding daily with MEF conditioned medium supplemented with 8 ng/ml bFGF (R&D Systems; Cat #233-FB). Plates were maintained at 37° C., 5% CO2 in a humidified box throughout the duration of assay.
Screening was conducted using the compounds described in Table 16. […] Compounds were made available as 5 mM stocks in 96-well plate format, solubilized in 100% DMSO (Sigma; Cat #D2650) and stored at −80° C. The library compounds were further diluted to an intermediate concentration of 0.2 mM in 50 mM HEPES (Invitrogen; Cat #15630-080), 20% DMSO and stored at 4° C. Test conditions were performed in triplicate, feeding on alternating days over a four-day assay period. Assay was initiated by aspirating culture medium from each well followed by three washes in PBS (Invitrogen; Cat #14190) to remove residual growth factors. On the first day of assay, test volumes of 200 μl per well were added to each well using DMEM:F12 base medium (Invitrogen; Cat #11330-032) supplemented with 0.5% FCS (HyClone; Cat #SH30070.03) and 100 ng/ml GDF-8 (R&D Systems, Cat #788-G8) plus 2.5 μM compound. A parallel set of test samples were treated in an identical manner but omitting GDF-8 from the medium. On the third day of assay, test volumes of 100 μper well were added to each well using DMEM:F12 base medium supplemented with 2% FCS plus 100 ng/ml GDF-8 (R&D Systems, Cat #788-G8). […] Positive control samples contained the same base medium supplemented with FCS and 100 ng/ml recombinant human activin A (PeproTech; Cat #120-14) throughout the four day assay along with Wnt3a (20 ng/ml) addition on days 1 and 2. Negative control samples contained DMEM:F12 base medium supplemented with FCS.
At the conclusion of four-days of culture, assay plates were washed twice with PBS (Invitrogen; Cat #14190), fixed with 4% paraformaldehyde (Alexis Biochemical; Cat #ALX-350-011) at room temperature for 20 minutes, then washed three times with PBS and permeabilized with 0.5% Triton X-100 (Sigma; Cat #T8760-2) for 20 minutes at room temperature. Cells were washed again three times with PBS and blocked with 4% chicken serum (Invitrogen; Cat #16110082) in PBS for 30 minutes at room temperature. Primary antibody (goat anti-human SOX17; R&D Systems; Cat #AF1924) was diluted 1:100 in 4% chicken serum and added to each well for one hour at room temperature. Alexa Fluor 488 conjugated secondary antibody (chicken anti-goat IgG; Molecular Probes; Cat #AZ1467) was diluted 1:200 in PBS and added to each sample well after washing three times with PBS. To counterstain nuclei, 4 μg/ml Hoechst 33342 (Invitrogen; Cat #H3570) was added for ten minutes at room temperature. Plates were washed once with PBS and left in 100 μl/well PBS for imaging.
Imaging was performed using an IN Cell Analyzer 1000 (GE Healthcare) utilizing the 51008bs dichroic for cells stained with Hoechst 33342 and Alexa Fluor 488. Exposure times were optimized from positive control wells and from untreated negative control wells stained with secondary antibody alone. Images from 15 fields per well were acquired to compensate for any cell loss during the bioassay and subsequent staining procedures. Measurements for total cell number and total SOX17 intensity were obtained from each well using IN Cell Developer Toolbox 1.7 (GE Healthcare) software. […]

[1] = compound in combination with GDF8
[2] = growth factor treatment alone, no compound

Row | Molecule | SOX17 expression in the presence of GDF-8 (2.5 μM compound with 100 ng/ml GDF-8, four days) | Cell Number, Average Total Cell Number [1] | Sox17 Expression, Average Total Intensity [1] | Cell Number, % of positive control [1] | Sox17 Expression, % of positive control [1] | Cell Number, Average Total Cell Number [2] | Sox17 Expression, Average Total Intensity [2] | Cell Number, % of positive control [2] | Sox17 Expression, % of positive control [2]
1 | O=C1CCN2CCN(CC2)Cc2cc(Cl)cc(c2)Nc2ncnc(n2)-c2cncc(c2)CCCN1 [Compound 34, 5-Chloro-1,8,10,12,16,22,26,32-octaazapentacyclo[24.2.2.1˜3.7˜0.1˜9,13˜0.1˜14.18˜]tritriaconta-3(33), 4,6,9(32), 10,12,14(31), 15,17-nonaen-23-one] | induced significant SOX17 expression | 13926 | 2.6E+08 | 96.2 % of positive control | 111.8 % of positive control |  |  |  | 
2 | GDF-8: growth factor GDF-8, also known as myostatin, member of the TGF-β family |  |  |  |  |  | 2856 | 2.2E+07 | 19.7 % of positive control | 9.4 % of positive control
